Assay results taken from patent publication US9701618B2, “Cannabidiol quinone derivatives” (VIVACELL BIOTECHNOLOGY ESPAÑA S.L., priority 2014, dated 2017).
“Also recorded” adds a separate entry of the source.

What was measured:
[1] = system: PPARg; assay: Inhibition of Rosiglitazone-induced PPARg activation in HEK-293 cells; assay type: cell-based, human; details: pretreated 30 min, then RSZ 1 μM for 6 hours
Method: (A) HEK-293 cells were co-transfected with GAL4-PPARg and GAL4-luc. […] Protein lysates were prepared and analyzed for luciferase activity. The concentration of the tested compound (μM) is shown at the x-axis and the PPARg activation fold is shown at the y-axis.
(A) HEK293T cells were maintained at 37° C. in a humidified atmosphere containing 5% CO2 in DMEM supplemented with 10% fetal calf serum (FBS), and 1% (v/v) penicillin/streptomycin. Rosiglitazone was purchased from Cayman Chemical Company (Ann Arbor, Mich., USA). HEK293T cells (2×10^3/well) (FIG. 3A) were seeded in BD Falcon™ White with Clear Bottom 96-well Microtest™ Optilux™ Plate for 24 hours. Afterwards, cells were transiently co-transfected with the expression vector GAL4-PPARγ and the luciferase reporter vector GAL4-luc using Roti©-Fect (Carl Roth, Karlsruhe, Germany) following the manufacturer's instructions. Twenty-four h post-transfection, cells were pretreated with increasing doses of the compounds for 30 min and then stimulated with RSZ (1 μM) for 6 hours.

[2] = target: T1, PPARg (Homo sapiens, UniProt P37231); details: cited from earlier work
T1 sequence (P37231 1-505): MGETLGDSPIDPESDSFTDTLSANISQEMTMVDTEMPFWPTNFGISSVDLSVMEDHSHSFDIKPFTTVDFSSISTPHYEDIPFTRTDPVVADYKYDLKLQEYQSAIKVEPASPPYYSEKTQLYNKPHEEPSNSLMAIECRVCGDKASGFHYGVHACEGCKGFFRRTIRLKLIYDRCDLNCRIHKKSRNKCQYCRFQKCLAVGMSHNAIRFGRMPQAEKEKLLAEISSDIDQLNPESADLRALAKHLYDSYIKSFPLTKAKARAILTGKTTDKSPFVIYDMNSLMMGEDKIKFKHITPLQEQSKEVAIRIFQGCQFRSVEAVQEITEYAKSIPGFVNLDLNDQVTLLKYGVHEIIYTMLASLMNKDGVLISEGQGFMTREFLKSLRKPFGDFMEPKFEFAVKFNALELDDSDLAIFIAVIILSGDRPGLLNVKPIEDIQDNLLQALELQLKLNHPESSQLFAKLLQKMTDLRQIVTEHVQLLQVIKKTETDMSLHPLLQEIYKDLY

[3] = system: PPARg; assay: PPARg transactivation assay (GAL4-PPARg/GAL4-luc) in HEK-293 and NIH-3T3 cells; assay type: cell-based, human; details: for PPARg transactivation (luciferase activity): treated 6 hours, compared with untreated cells
Method: The concentration of the tested compound (μM) is shown at the x-axis and the PPARg activation fold is shown at the y-axis. […]. Fold activation level was calculated, taking the control sample (−), without the presence of any PPARg agonist or activating agent, as reference. Data are expressed as mean±S.D. of at least three independent experiments.
To investigate the biological activities of the novel compounds we performed PPARg transactivation assays in HEK-293 cells and in NIH-3T3 fibroblasts cells.
HEK293T cells and human primary fibroblasts cells were maintained at 37° C. in a humidified atmosphere containing 5% CO2 in DMEM supplemented with 10% fetal calf serum (FBS), and 1% (v/v) penicillin/streptomycin. Rosiglitazone was purchased from Cayman Chemical Company (Ann Arbor, Mich., USA). All other reagents were from Sigma Co (St Louis, Mo., USA). HEK293T cells (2×10^3/well) (FIGS. 1A, 1B and 1C) or NIH-3T3 cells (5×10^3/well) (FIG. 2) were seeded in BD Falcon™ White with Clear Bottom 96-well Microtest™ Optilux™ Plate for 24 hours. Afterwards, cells were transiently co-transfected with the expression vector GAL4-PPARγ and the luciferase reporter vector GAL4-luc using Roti©-Fect (Carl Roth, Karlsruhe, Germany) following the manufacturer's instructions. Twenty-four h post-transfection, cells were pretreated with increasing doses of the compounds for 6 hours. Then, the cells were lysed in 25 mM Tris-phosphate pH 7.8, 8 mM MgCl2, 1 mM DTT, 1% Triton X-100, and 7% glycerol. Luciferase activity was measured in the cell lysate using a TriStar LB 941 multimode microplate reader (Berthold) and following the instructions of the Luciferase Assay Kit (Promega, Madison, Wis., USA). Protein concentration was measured by the Bradford assay (Bio-Rad, Richmond, Calif., USA). The background obtained with the lysis buffer was subtracted in each experimental value and the specific transactivation expressed as a fold induction over untreated cells. All the experiments were repeated at least three times. The plasmids used were Gal4-hPPARgamma (plasmid name: pCMV-BD-hPPARg, Sinal Laboratory, Dept. of Pharmacology, Dalhousie University) and Gal4 luc reporter plasmid that includes five Gal4 DNA binding sites fused to the luciferase gene. […]. Data are given as means with deviation standard error bars of three replicates. […].

[4] = system: human COL1A2 promoter; assay: TGFb-induced collagen type I gene transcription (COL1A2-Luc) in NIH-3T3 fibroblasts; assay type: cell-based; details: 30 min pre-incubation, TGFb 50 ng/ml 6 h
Method: To investigate the potential anti-fibrotic activity of CBD-derivatives NIH-3T3 fibroblast cells were transiently transfected with the plasmid COL1A2-Luc plasmid by using Roti©-Fect according to the manufacturer instructions. The COL1A2-luciferase construct contains sequences from −353 to +58 bp of the human COL1A2 promoter fused to the luciferase reporter gene (pGL2 basic, Promega, Madison, Wis.). […] Protein lysates were prepared and analyzed for luciferase activity. The concentration of the tested compound (μM) is shown at the x-axis and the percentage of COL1A2 activation is shown at the y-axis considering 100% activation the effect of TGFb in the absence of the compounds. Data are expressed as mean±SD of at least three independent experiments.
Cultured NIH-3T3 fibroblast cells were transiently transfected with the plasmid COL1A2-Luc plasmid that contains sequences from −353 to +58 bp of the human COL1A2 promoter fused to the luciferase reporter gene. Twenty-four hour later the cells were incubated with compounds III, V, VIII and X (as examples) for 30 min and treated with TGFb (50 ng/ml) for 6 h. Protein lysates were prepared and analyzed for luciferase activity.

[5] = system: NIH-3T3 cells; assay: TGFb-induced collagen production, Sirius Red-Fast Green method; assay type: cell-based; details: 1 hour pre-incubation, TGFb 50 ng/ml 24 hours
Method: The production of collagen was carried out using the Sirius Red-Fast Green method, designed to quantify the amount of collagen and non-collagen proteins in cell pellets. The collagen production was determined at 540 nm and 605 nm in a Genesis 10 UV scanning spectrofluorometer (Thermo Fisher Scientific). To calculate the amounts of collagen, first, we corrected the OD 540 value by subtracting the contribution by Fast Green, which interfere in the absorbance at 540 nm. Fast Green contributes 29.1% of the OD 540 value. The Color equivalence is 37.8 for collagen and 2.04 for non-collagen proteins at OD 540 and […], respectively. Collagen(pg/100 μl cell pellet)={[OD 540−(OD 605×0.291)]/37.8×1000}×10^6.
The experiments were repeated three times, and the results were expressed as a fold induction over untreated cells.
The production of collagen was carried out using the Sirius Red-Fast Green method, designed to quantify the amount of collagen and non-collagen proteins in cell pellets. NIH-3T3 cells were seeded at a density of 5×10^4/well in 24 well plates and they were incubated overnight at 37° C. to allow cell attachment. Next, cells were pre-incubated 1 hour with the indicated concentrations of compounds III, V, VIII and X and TGFb (50 ng/ml) during 24 hours. After the treatment, the cell pellets were extracted overnight at 4° C. with 100 μl of 0.5M acetic acid. Then, 1 ml of the dye solution (0.1% Sirius Red and 0.1% Fast Green dissolved in saturated picric acid) was added to the cell pellets and mixed gently at room temperature for 30 minutes. Next, samples were centrifuged at 10,000 g for 5 minutes to pellet the collagen. The supernatants were carefully removed without disturbing the pellet and 1 ml of 0.1 M hydrochloric acid was added to each tube to remove unbound dye. Samples were centrifuged at 10,000 g for 5 minutes and 1 ml of 0.5 M sodium hydroxide was added to each tube and vortex vigorously to release the bound dye. Samples were centrifuged at 2500 g for 5 minutes to re-pellet any cell debris.
The collagen production was determined and the results were expressed as a fold induction over untreated cells.

[6] = system: Jurkat cells; assay: Mitochondrial membrane potential (MitoTracker Red CMXR, flow cytometry); assay type: cell-based; details: 2 hours, increasing concentrations
[7] = system: Jurkat cells; assay: ROS generation (H2DCF-DA, flow cytometry); details: 6 hours, increasing concentrations

Row | Molecule | RSZ-induced PPARg transactivation [1] | PPARg transactivation (luciferase activity) [3] | TGFb-induced collagen type I gene transcription [4] | TGFb-induced collagen production [5] | mitochondrial membrane potential [6] | intracellular ROS levels [7] | other results
1 | C=C(C)[C@@H]1CCC(C)=C[C@H]1C1=C(O)C(=O)C(CCCCC)=C(C(=O)OC/C=C(\C)CCC=C(C)C)C1=O [Compound XIII, (E)-3,7-dimethylocta-2,6-dienyl-4-hydroxy-5-((1R,6R)-3-methyl-6-(prop-1-en-2-yl)cyclohex-2-enyl)-3,6-dioxo-2-pentylcyclohexa-1,4-dienecarboxylate] | decrease | – | – | – | – | – | –
2 | 4 methyl-CBD-quinone | – | – | – | – | – | – | affinity for PPARg compared to parent molecule CBD [2]: higher affinity
3 | C=C(C)[C@@H]1CCC(C)=C[C@H]1C1=C(O)C(=O)C(CCCCC)=C(NCC)C1=O [Compound II, (1′R,6′R)-3-(Ethylamine)-6-hydroxy-3′-methyl-4-pentyl-6′-(prop-1-en-2-yl)-[1,1′-bi(cyclohexane)]-2′,3,6-triene-2,5-dione] | – | the most active compounds | – | – | – | – | –
4 | C=C(C)[C@@H]1CCC(C)=C[C@H]1C1=C(O)C(=O)C(CCCCC)=C(NCCCC)C1=O [Compound V, (1′R,6′R)-3-(Butylamine)-6-hydroxy-3′-methyl-4-pentyl-6′-(prop-1-en-2-yl)-[1,1′-bi(cyclohexane)]-2′,3,6-triene-2,5-dione] | decrease | the most active compounds | clearly inhibited | clearly inhibited | did not induce a loss | not reactive; also recorded: unable to induce ROS accumulation significantly | –
5 | C=C(C)[C@@H]1CCC(C)=C[C@H]1C1=C(O)C(=O)C(CCCCC)=C(NCC(C)C)C1=O [Compound IV, (1′R,6′R)-3-(Isobutylamine)-6-Hydroxy-3′-methyl-4-pentyl-6′-(prop-1-en-2-yl)-[1,1′-bi(cyclohexane)]-2′,3,6-triene-2,5-dione] | – | the most active compounds | – | – | – | – | –
6 | CN(CCOc1ccc(CC2SC(=O)NC2=O)cc1)c1ccccn1 (stereo not shown) [Rosiglitazone, reference compound] | – | – | – | – | – | – | increase of PPARg activity (fold induction) ([3]; 1 μM concentration): more than 100 times
7 | CBD-1,4-dihydroxyquinone | – | – | – | – | – | – | affinity for PPARg compared to parent molecule CBD [2]: higher affinity
8 | 4-formyl-methoxy-CBD-quinone | – | – | – | – | – | – | affinity for PPARg compared to parent molecule CBD [2]: higher affinity
9 | C=C(C)[C@@H]1CCC(C)=C[C@H]1C1=C(O)C(=O)C(CCCCC)=C(NC(C)C)C1=O [Compound VII, (1′R,6′R)-3-(Isopropylamine)-6-Hydroxy-3′-methyl-4-pentyl-6′-(prop-1-en-2-yl)-[1,1′-bi(cyclohexane)]-2′,3,6-triene-2,5-dione] | – | the most active compounds | – | – | did not induce a loss | not reactive | –
10 | C=C(C)[C@@H]1CCC(C)=C[C@H]1C1=C(O)C(=O)C(CCCCC)=C(NCCCCC)C1=O [Compound III, (1′R,6′R)-3-(Pentylamine)-6-Hydroxy-3′-methyl-4-pentyl-6′-(prop-1-en-2-yl)-[1,1′-bi(cyclohexane)]-2′,3,6-triene-2,5-dione] | decrease | the most active compounds | clearly inhibited | clearly inhibited | did not induce a loss | not reactive; also recorded: unable to induce ROS accumulation significantly | –
11 | C=C(C)[C@@H]1CCC(C)=C[C@H]1C1=C(O)C(=O)C(CCCCC)=C(NCc2ccccc2)C1=O [Compound VIII, (1′R,6′R)-3-(Benzylamine)-6-hydroxy-3′-methyl-4-pentyl-6′-(prop-1-en-2-yl)-[1,1′-bi(cyclohexane)]-2′,3,6-triene-2,5-dione] | decrease | the most active compounds | clearly inhibited | clearly inhibited | – | – | –
12 | C=C(C)[C@@H]1CCC(C)=C[C@H]1C1=C(O)C(=O)C(CCCCC)=C(NCCC(C)C)C1=O [Compound X, (1′R,6′R)-3-(Isopentylamine-6-Hydroxy)-3′-methyl-4-pentyl-6′-(prop-1-en-2-yl)-[1,1′-bi(cyclohexane)]-2′,3,6-triene-2,5-dione] | decrease | – | clearly inhibited | clearly inhibited | did not induce a loss | not reactive; also recorded: unable to induce ROS accumulation significantly | –
